Results on one compound are retold here after patent US20210393520A1, “TREATMENT OF GRAM-NEGATIVE FOLLICULITIS OR AN INFLAMMATION THEREOF WITH BESIFLOXACIN” (VYOME THERAPEUTICS LIMITED, priority 2018, published 2021).

Converted amounts (≈) assume the structure as drawn.

The test system of series [1] is Acinetobacter sp. 488. The series is described as follows: MIC, micro broth dilution in Muller Hinton broth (CLSI), Table 1B. Particulars: read-out: Minimum Inhibitory Concentration. Type of series: cell-based. The method, then:
(§1) Besifloxacin HCL was tested against ampicillin and cefotaxime (3rd generation cephalosporin) susceptible and resistant gram-negative bacterial strains involved in GNF (gram negative folliculitis) by broth dilution method as per the Clinical & Laboratory Standards Institutes (CLSI) guidelines. MIC assay was performed in 96 well plates by micro broth dilution method, in 96 well plates, all the wells were added with 100 μl of sterilized Muller Hinton broth No: 2 cation broth (HiMedia, India). The initial stock of test compounds (1 mg/ml) were prepared in dimethyl sulfoxide (DMSO) and further dilutions were made in culture broth to get the desirable concentration. Then 100 μl of broth containing test compounds were initially added to the first column's wells and then serial dilution was performed up to well of 10th column. Wells of 11th and 12th column served as a positive and negative control respectively. Finally, 100 μl of inoculum (0.5 McFarland equal bacterial suspension was 100 times diluted in culture broth) was added to all the wells. Plates were incubated at 37° C. for 18-24 hrs. After incubation, MIC of each test compound was determined by observing the lowest concentration of test compound that has no visual growth compared to growth control. Minimum inhibitory concentration of besifloxacin, ampicillin and cefotaxime against gram negative bacterial strains were shown in Table 1.

Series [2] relates to Enterobacter sp. 523. The series is described as above. Type of series: cell-based. Particulars: read-out: Minimum Inhibitory Concentration. The method, then: as §1
The test system of series [3] is Pseudomonas sp. 537. The description is as above. In kind it is cell-based. To be noted: read-out: Minimum Inhibitory Concentration. The method, then: as §1
Series [4] relates to Enterobacter sp. 532. The description is as above. In kind it is cell-based. Particulars: read-out: Minimum Inhibitory Concentration. Here is the method:
as §1

For series [5], the system named is Escherichia coli 592. The description is as above. Particulars: read-out: Minimum Inhibitory Concentration. In kind it is cell-based. The method, then:
as §1

Series [6] deals with Pseudomonas sp. 556. The series is described as above. Particulars: read-out: Minimum Inhibitory Concentration. In kind it is cell-based. The method, then: as §1
Series [7] concerns Escherichia coli 591. The series is described as above. In kind it is cell-based. To be noted: read-out: Minimum Inhibitory Concentration. Here is the method:
as §1

Series [8] has as its system skin resident bacteria isolated from acne lesions. Briefly: MIC, summary statements on skin resident bacteria of acne patients. In kind it is cell-based. The text has this: Moreover, as the MIC values are low and within a narrow range, the chance of future resistance generation due to sub optimal drug delivery in skin is also substantially lower.
Different skin resident bacteria were isolated from acne lesions of moderate to severe acne patients. As expected, P. acnes and S. epidermidis were two most prevalent species. Members of the skin microbiomes were of diverse nature. Most of the genus were gram positive, but few of them, like Klebsiella, were gram negative. Most of them were aerobic, but few, like P. acnes, were anaerobic in nature. […] Even if they are present in low numbers in microbiomes, they can act as reservoirs of resistance against antibiotic of choice which may in the log run affect the prognosis of GNF.

In series [9] the test system is E. aerogenes M2-1 (clinical isolate). Briefly: MIC, micro broth dilution (CLSI), Table 1A. Type of series: cell-based, Enterobacter aerogenes. Particulars: Klebsiella aerogenes. The method, then:
(§2) MIC of besifloxacin and other antibiotics molecules were determined by micro broth dilution method as per the Clinical and Laboratory Standards Institute (CLSI) guideline. MIC assay is the determinant of the inherent anti-microbial potency of a particular molecule. For preparing inoculum, bacterial strains were cultured in Brain Heart Infusion Agar (BHIA) at 37° C. for 24 hours. […] For bacterial inoculum, bacterial culture turbidity was adjusted to 0.1 OD at 600 nm in UV-Visual spectrophotometer (approximately 1.5×10^8 cells/ml) and further diluted (100 times with sterile BHI broth). Diluted bacterial suspension (100 μl) was added to each well except sterility control wells (column 12 of 96 well plate). Column 11 of 96 well plate was used as growth control and vehicle control. The plates were incubated at 37° C. for 24 h. The MIC of the test compounds were determined by observing the lowest concentration of test compound that prevented the visual bacterial growth.

In series [10] the test system is E. aerogenes NCIM 5139 (wild type). The series is described as follows: MIC, micro broth dilution (CLSI), Table 1A. In kind it is cell-based, Enterobacter aerogenes. Particulars: Klebsiella aerogenes, NCIM5139. The method, then: as §2
Series [11] in a line: Skin penetration/retention on human abdominal skin, Franz-type diffusion cells. In kind it is in vitro ADME. To be noted: human epidermal membranes, 12 hr, approximately 10 mg/cm^2 of approximately 1.0% formulation. Here is the method:
Besifloxacin gel and cream containing suspended besifloxacin were tested for skin retention study on human abdominal skin. Besifloxacin gel and cream were applied over a 12 hr application period. Heat-separated epidermal membranes from a single donor were mounted in horizontal Franz-type diffusion cells (exposed surface area 1.33 cm2) over a receptor solution of phosphate buffered saline, pH 7.4 containing 5% ethanol to facilitate solubilisation of any material penetrating the skin. Cells were maintained at 35° C. and receptor solution was stirred throughout. Formulations containing approximately 1.0% besifloxacin w/w and applied at a dose of approximately 10 mg/cm^2. The samples of the receptor solution were taken at times up to 12 hrs and extracts from surface swabs, stratum corneum tape strips and residual epidermis were obtained at the end of the experiment at 12 hrs. All samples were analysed by validated LCMS.
Besifloxacin gel containing suspended besifloxacin was tested for skin retention study on human abdominal skin. Testing procedure was similar to example 27.

Turning to `N[C@@H]1CCCCN(c2c(F)cc3c(=O)c(C(=O)O)cn(C4CC4)c3c2Cl)C1` [Besifloxacin], the MIC turned out to be 2 µg/mL (≈ 5.08 µM) in series [1]; 0.5 µg/mL (≈ 1.27 µM) in series [2]; 1 µg/mL (≈ 2.54 µM) in series [3]; 16 µg/mL (≈ 40.6 µM) in [4]; 0.5 µg/mL (≈ 1.27 µM) in series [5]; 1 µg/mL (≈ 2.54 µM) in series [6]. Also, the MIC in series [7], in [9] and in [10] was 0.125 µg/mL (≈ 0.317 µM) in each case. In [8] (Table 2 isolates), the “Activity against skin resident bacteria isolated from acne lesions (in words)” value is “potent antibacterial activity”. The “isolates demonstrating resistance to besifloxacin” value in series [8] (micro broth dilution assay, acne patients or healthy individuals) is listed as “none”. Moreover, in [11], the “besifloxacin recovered from receptor solution” value is given as “negligible amounts”.
